Reference: patent US20080221205A1, “FURAN DERIVATIVES FOR PREVENTING AND CURING OSTEOPOROSIS AND PHARMACEUTICAL COMPOSITIONS CONTAINING THE SAME” (priority 2002, published 2008)

What was measured:
MG-63 osteoblasts = experiment: Proliferation of MG-63 osteoblasts (3H-thymidine incorporation); type: cell-based, human; conditions: concentration not given
From the text: (§1) In the following tests, three kinds of cell lines were used. The human osteosarcoma cell lines, MG-63 (ATCC No. CRL-1427) and HOS (ATCC No. CRL-1543), and mouse muscle C2C12 muscle cells (ATCC No. CRL-1772) were purchased from ATCC (American Type Culture Collection, Rockville, USA), and cultured in Dulbecco's modified Eagle's medium (DMEM) supplemented with 10% fetal bovine serum (FBS).
In order to indirectly evaluate cytotoxicity of the Compound 1 and investigate effect of the Compound 1 naturally extracted on obsteoblast proliferation, proliferation of MG-63 osteoblasts was investigated by measuring the amount of ^3H-thymidine incorporated into cellular DNA upon DNA replication. The cells were aliquotted onto 24-well plates at a density of 2×10^4 cells per well. The next day, after exchanging culture medium to medium containing 1% FBS, the cells were treated with the compound 1 serially diluted at various concentrations and further cultured for 48 hrs. Four hours before finishing the culture of 48 hrs, ^3H-thymidine was added to the medium in an amount of 3 μCi per well. The cells were washed with phosphate buffer, and treated with 5% trichloroacetic acid (TCA) pre-cooled on ice. Each of the separated TCA-insoluble fractions was dissolved in 0.1 M NaOH. With a portion of each fraction, ^3H-thymidine uptake by the cells was measured using a liquid scintillation counter.

[1] = system: ALP activity in HOS cells; experiment: Alkaline phosphatase (osteoblast marker enzyme) activity in HOS cells; type: cell-based, human; conditions: concentration not given
From the text: as §1
To examine whether the Compound 1 affects positively or negatively osteoblast activity, alkaline phosphatase (ALP) activity was measured. HOS cells were aliquotted onto a 96-well microplate at a density of 5×10^3 cells per well, and cultured. When forming a monolayer, the cells were treated with the naturally extracted compound (Compound 1) at prescribed concentrations. After incubation in 10% FBS-containing DMEM for 48 hrs, the cells were treated with 0.1% Triton X-100/saline for 30 min at 37° C. A portion of each cell lysate was reacted with 0.1 N glycine-NaCh buffer (pH 10.4) for 30 min at 37° C. in the presence of 100 mM nitrophenyl phosphate (PNPP) as a substrate of alkaline phosphate. The amount of PNP (ρ-nitrophenol) released from the substrate PNPP was determined by measuring absorbance at 405 nm. Protein amount was determined by a modified Lowry method, and enzyme activity was designated as nmol substrate cleaved/h/mg protein.

osteoprotegerin (OPG) = experiment: Osteoprotegerin (OPG) expression in MG63 cells, OPG ELISA; type: cell-based, human; conditions: concentration not given
Protocol: as §1
When MG63 cells grew confluently on 96-well plates, […] of FBS-free DMEM containing various concentrations of the Compound 1 was added to each well. After incubation for 16 hrs, the culture supernatants were collected. The amount of OPG released into the medium was determined using an OPG ELISA kit.

[2] = system: ovariectomized white mice; experiment: Bone mineral densitometer test, therapeutic effect on osteoporosis; type: in vivo; conditions: test group
Protocol: After ovariectomy, female white mice weighing about 250 g were bred for four weeks. After checking the onset of osteoporosis in the mice, each of the mice was orally administered with 220 μl of the Compound 1 dissolved in 30 ml water for four weeks.
BMD measurement was performed before ovariectomy and every week for eight weeks after ovariectomy, using a bone mineral densitometer, XCT 540 Research SA made in Germany.
After anesthetizing the mice being bred in cages by intraperitoneal injection of a mixture of Ketamine HCl (ketara 10 mg/kg) and 2% xylazine HCl (Roupun 0.15 ml/kg), BMD measurement was made at a voxel size of 0.1×0.1 mm^2 and threshold values of 280 mg/cm^2 for cancellous bone and 500 mg/cm^2 for compact bone. The analysis sites at the proximal tibias were determined by Scout scans (10 mm/sec), and BMD was measured at three slices at the determined sites by CT scans (7 mm/sec). BMD measurement was performed twice or more at the same site every week during eight weeks after ovariectomy.

[3] = listed as compound prepared in Example 1

O=Cc1ccc(CO)o1 [Compound 1, 5-hydroxymethylfuran-2-carboxyaldehyde]
Proliferation rate of osteoblasts compared to control (MG-63 osteoblasts): over 105% | Proliferation rate of osteoblasts compared to control (MG-63 osteoblasts; [3]): ≥ 105% | Alkaline phosphatase activity compared to control [1]: about 121% | Alkaline phosphatase activity compared to control [1, 3]: 120% | Expression of osteoprotegerin (OPG) in osteoblasts (in words) (osteoprotegerin (OPG)): increases the expression of osteoprotegerin (OPG) | Change in BMD, % ([2]; Week 1 after ovariectomy (before administration), control −3): −2.9% | Change in BMD, % ([2]; Week 3 after ovariectomy (before administration), control −15): −14% | Change in BMD, % ([2]; Week 4 after ovariectomy (start of oral 220 μl administration), control −19): −17% | Change in BMD, % ([2]; Week 7 after ovariectomy, oral 220 μl from week 4, control −25.9): −19%
